Measurements published in ChEMBL document CHEMBL5726774, “Triterpenoids with HIV maturation inhibitory activity” (2019).

Tests used:
[1] = (§1) HIV Cell Culture Assay: MT-2 cells and 293T cells were obtained from the NIH AIDS Research and Reference Reagent Program. MT-2 cells were propagated in RPMI 1640 media supplemented with 10% heat-inactivated fetal bovine serum, […]. The 293T cells were propagated in DMEM media supplemented with 10% heat-inactivated fetal bovine serum (FBS), 100 units/mL penicillin G and 100 μg/mL streptomycin. The proviral DNA clone of NL4-3 was obtained from the NIH AIDS Research and Reference Reagent Program. A recombinant NL4-3 virus, in which a section of the nef gene from NL4-3 was replaced with the Renilla luciferase gene, was used as a reference virus. In addition, residue Gag P373 was converted to P373S. Briefly, the recombinant virus was prepared by transfection of the altered proviral clone of NL4-3. Transfections were performed in 293T cells using LipofectAMINE PLUS from Invitrogen (Carlsbad, Calif.), according to manufacturer's instruction. The virus was titered in MT-2 cells using luciferase enzyme activity as a marker. Luciferase was quantitated using the Dual Luciferase kit from Promega (Madison, Wis.), with modifications to the manufacturer's protocol. The diluted Passive Lysis solution was pre-mixed with the re-suspended Luciferase Assay Reagent and the re-suspended Stop & Glo Substrate (2:1:1 ratio). Fifty (50) μL of the mixture was added to each aspirated well on assay plates and luciferase activity was measured immediately on a Wallac TriLux (Perkin-Elmer). Antiviral activities of inhibitors toward the recombinant virus were quantified by measuring luciferase activity in cells infected for 4-5 days with NLRluc recombinants in the presence serial dilutions of the inhibitor.; assay type: cell-based
[2] = as §1; assay type: cell-based; remark: listed apart in the source

| SMILES | EC50 [1] [µM] | EC50 [2] [µM] |
| --- | --- | --- |
| C=C(C)[C@@H]1CC[C@]2(NCCC3(O)COC3)CC[C@]3(C)[C@H](CC[C@@H]4[C@@]5(C)CC=C(C6=CC[C@](CF)(C(=O)O)CC6)C(C)(C)[C@@H]5CC[C@]43C)[C@@H]12 | < 0.05 | > 0.05 |
| C=C(C)[C@@H]1CC[C@]2(NCC[C@]3(O)CC[C@H](S(C)(=O)=O)CC3)CC[C@]3(C)[C@H](CC[C@@H]4[C@@]5(C)CC=C(C6=CC[C@](CF)(C(=O)O)CC6)C(C)(C)[C@@H]5CC[C@]43C)[C@@H]12 | < 0.05 | > 0.05 |
| C=C(C)[C@@H]1CC[C@]2(NCCC3(O)COC3)CC[C@]3(C)[C@H](CC[C@@H]4[C@@]5(C)CC=C(C6=CC[C@@](CF)(C(=O)O)CC6)C(C)(C)[C@@H]5CC[C@]43C)[C@@H]12 | < 0.05 | > 0.05 |
| C=C(C)[C@@H]1CC[C@]2(NCC[C@]3(O)CC[C@@H](S(C)(=O)=O)CC3)CC[C@]3(C)[C@H](CC[C@@H]4[C@@]5(C)CC=C(C6=CC[C@@](CF)(C(=O)O)CC6)C(C)(C)[C@@H]5CC[C@]43C)[C@@H]12 | < 0.05 | > 0.05 |
| C=C(C)[C@@H]1CC[C@]2(NCCN3CCC(S(C)(=O)=O)CC3)CC[C@]3(C)[C@H](CC[C@@H]4[C@@]5(C)CC=C(C6=CCC(F)(OC=O)CC6)C(C)(C)[C@@H]5CC[C@]43C)[C@@H]12 (some centres not stated) | 0.004 | – |
| C=C(C)[C@@H]1CC[C@]2(NCCN3CCS(=O)(=O)CC(C)C3)CC[C@]3(C)[C@H](CC[C@@H]4[C@@]5(C)CC=C(C6=CC[C@](CF)(OC=O)CC6)C(C)(C)[C@@H]5CC[C@]43C)[C@@H]12 (some centres not stated) | < 0.05 | > 0.05 |
| C=C(C)[C@@H]1CC[C@]2(NCCN3CCS(=O)(=O)CC(C)C3)CC[C@]3(C)[C@H](CC[C@@H]4[C@@]5(C)CC=C(C6=CC[C@@](CF)(OC=O)CC6)C(C)(C)[C@@H]5CC[C@]43C)[C@@H]12 (some centres not stated) | < 0.05 | > 0.05 |
| C=C(C)[C@@H]1CC[C@]2(NCCN3CCS(=O)(=O)CC3C(=O)OCC)CC[C@]3(C)[C@H](CC[C@@H]4[C@@]5(C)CC=C(C6=CC[C@@](CF)(C(=O)O)CC6)C(C)(C)[C@@H]5CC[C@]43C)[C@@H]12 (some centres not stated) | < 0.05 | < 0.05 |
| C=C(C)[C@@H]1CC[C@]2(NCCN3CCS(=O)(=O)CC3)CC[C@]3(C)[C@H](CC[C@@H]4[C@@]5(C)CC=C(C6=CCC(C)(OC=O)CC6)C(C)(C)[C@@H]5CC[C@]43C)[C@@H]12 (some centres not stated) | 0.002 | – |
| C=C(C)[C@@H]1CC[C@]2(NCCC(O)(C3CC3)C3CC3)CC[C@]3(C)[C@H](CC[C@@H]4[C@@]5(C)CC=C(C6=CC[C@](CF)(C(=O)OCc7ccccc7)CC6)C(C)(C)[C@@H]5CC[C@]43C)[C@@H]12 | < 0.05 | > 0.05 |
| CC(C)[C@@H]1CC[C@]2(NCCN3CCS(=O)(=O)CC3)CC[C@]3(C)[C@H](CC[C@@H]4[C@@]5(C)CC=C(C6CCC(CF)(C(=O)O)CC6)C(C)(C)[C@@H]5CC[C@]43C)[C@@H]12 (some centres not stated) | < 0.05 | > 0.05 |
| C=C(C)[C@@H]1CC[C@]2(NCCN3CCS(=O)(=O)CC3)CC[C@]3(C)[C@H](CC[C@@H]4[C@@]5(C)CC=C(C6=CCC(CF)(OC=O)CC6)C(C)(C)[C@@H]5CC[C@]43C)[C@@H]12 (some centres not stated) | 0.002 | 0.21 |
| C=C(C)[C@@H]1CC[C@]2(NCCN3CCS(=O)(=O)CC3)CC[C@]3(C)[C@H](CC[C@@H]4[C@@]5(C)CC=C(C6=CC[C@@](CF)(OC=O)CC6)C(C)(C)[C@@H]5CC[C@]43C)[C@@H]12 | 0.003 | 0.17 |
| C=C(C)[C@@H]1CC[C@]2(NC(CN3CCS(=O)(=O)CC3)C(F)(F)F)CC[C@]3(C)[C@H](CC[C@@H]4[C@@]5(C)CC=C(C6=CC[C@](CF)(C(=O)O)CC6)C(C)(C)[C@@H]5CC[C@]43C)[C@@H]12 (some centres not stated) | > 0.05 | > 0.05 |
| C=C(C)[C@@H]1CC[C@]2(NCCN3CCS(=O)(=O)CC3)CC[C@]3(C)[C@H](CC[C@@H]4[C@@]5(C)CC=C(C6=CC[C@](CF)(OC=O)CC6)C(C)(C)[C@@H]5CC[C@]43C)[C@@H]12 | 0.002 | 0.78 |
| C=C(C)[C@@H]1CC[C@]2(NCCN3CC(C)S(=O)(=O)C(C)C3)CC[C@]3(C)[C@H](CC[C@@H]4[C@@]5(C)CC=C(C6=CC[C@](CF)(OC=O)CC6)C(C)(C)[C@@H]5CC[C@]43C)[C@@H]12 (some centres not stated) | < 0.05 | > 0.05 |
| C=C(C)[C@@H]1CC[C@]2(NCCN3CC(C)S(=O)(=O)C(C)C3)CC[C@]3(C)[C@H](CC[C@@H]4[C@@]5(C)CC=C(C6=CC[C@@](CF)(OC=O)CC6)C(C)(C)[C@@H]5CC[C@]43C)[C@@H]12 (some centres not stated) | < 0.05 | > 0.05 |
